The source of these data is publication PMC7992430 (Journal of medicinal chemistry, 2020).

Experiment [1] deals with G30 neurospheres (glioma stem-like cells, luciferase-transduced). As to the kind of experiment: G30 cytotoxicity assay. The format is cell-based. Particulars: read-out: IC50 in G30 GSCs, 72 h treatment, CellTiter-Glo. In general terms: In ATP-based viability assays light output follows the ATP content of the culture.
In experiment [2] the test system is G9 neurospheres (glioma stem-like cells). Kind of experiment: G9 cytotoxicity assay. The format is cell-based.

By IC50 is commonly meant the concentration that inhibits the measured activity by half.

In the case of `N.N.[Cl][Pt][Cl]` [cisplatin], the IC50 in experiment [1] came out at 2 µM; in experiment [2] (read-out: IC50 against G9 cells, 80 h treatment, CellTiter-Glo), 4 µM.
In the case of `CCCCNC(=O)[O][Pt]([NH2])([NH2])([Cl])([Cl])[O]C(=O)CCC(=O)O` [prodrug 4, cis,cis,trans-[Pt(NH3)2Cl2(O2CCH2CH2COOH)(n-butyl Carba-mate)]], the “IC50 against G9 cells” value in experiment [2] (80 h treatment, CellTiter-Glo) is given as “not active”.
